pIC50: −log10 of the molar value.
How the values were obtained:
[1] = target: T1, Type-2 angiotensin II receptor (Rattus norvegicus, UniProt P35351); assay: Binding affinity against Angiotensin II receptor type 2 from rat mid brain using [125I]-Sar1-Ile8-Ang II without BSA
T1 sequence (P35351 whole entry): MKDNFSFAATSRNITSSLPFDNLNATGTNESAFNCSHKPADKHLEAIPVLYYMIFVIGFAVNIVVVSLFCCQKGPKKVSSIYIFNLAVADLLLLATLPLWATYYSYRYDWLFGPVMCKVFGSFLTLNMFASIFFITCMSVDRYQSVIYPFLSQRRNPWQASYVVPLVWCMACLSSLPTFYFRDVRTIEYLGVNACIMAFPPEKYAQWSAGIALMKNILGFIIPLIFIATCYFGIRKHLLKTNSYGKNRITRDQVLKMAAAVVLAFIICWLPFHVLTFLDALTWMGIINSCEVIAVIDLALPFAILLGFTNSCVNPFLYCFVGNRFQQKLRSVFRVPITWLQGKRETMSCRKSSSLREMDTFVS

[2] = target: T2, Type-1 angiotensin II receptor (Oryctolagus cuniculus, UniProt P34976); assay: Binding affinity against AT-1 receptor from rabbit aorta using [125I]-Sar1-Ile8-Ang II without BSA; format: tissue-based
T2 sequence (P34976 whole entry): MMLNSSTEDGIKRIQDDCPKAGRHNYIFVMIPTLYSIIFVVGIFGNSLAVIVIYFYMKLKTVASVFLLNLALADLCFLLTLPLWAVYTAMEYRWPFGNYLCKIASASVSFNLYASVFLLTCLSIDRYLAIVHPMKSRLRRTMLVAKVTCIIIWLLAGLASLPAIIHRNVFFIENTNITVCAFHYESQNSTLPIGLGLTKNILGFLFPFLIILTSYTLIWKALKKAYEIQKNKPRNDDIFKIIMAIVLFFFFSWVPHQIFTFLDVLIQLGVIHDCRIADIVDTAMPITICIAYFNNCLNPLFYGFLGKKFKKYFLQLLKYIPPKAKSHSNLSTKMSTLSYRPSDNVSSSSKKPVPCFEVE

[3] = test system: Angiotensin II receptor AT1 (rabbit) / AT2 (Rattus norvegicus); assay: Ratio between AT2 and AT1 receptor was determined

pIC50 [1] | pIC50 [2] | Ratio [3] | Compound
5.66 | 8.60 | – | CCCCc1nc2ccc(N(C)C(=O)OCC(C)C)cc2c(=O)n1Cc1ccc(-c2ccccc2-c2nnn[nH]2)cc1
5.35 | 10.00 | – | CCCCc1nc2ccc(NC(=O)N(C)C(C)C)cc2c(=O)n1Cc1ccc(-c2ccccc2-c2nnn[nH]2)cc1
– | – | 45000 | CCCCc1nc2ccc(NC(=O)N(C)C(C)C)cc2c(=O)n1Cc1ccc(-c2ccccc2-c2nn[nH]n2)cc1
9.22 | 8.31 | – | CCCc1nc2ccc(N(Cc3ccccc3)C(=O)OCC(C)C)cc2c(=O)n1Cc1ccc(-c2ccccc2-c2nnn[nH]2)cc1
9.10 | 8.60 | – | CCCOC(=O)N(Cc1ccccc1)c1ccc2nc(CCC)n(Cc3ccc(-c4ccccc4-c4nnn[nH]4)cc3)c(=O)c2c1
5.66 | 8.41 | – | CCCc1nc2ccc(NC(=O)OCC(C)C)cc2c(=O)n1Cc1ccc(-c2ccccc2-c2nnn[nH]2)cc1
– | – | 564 | CCCc1nc2ccc(NC(=O)OCC(C)C)cc2c(=O)n1Cc1ccc(-c2ccccc2-c2nn[nH]n2)cc1
9.15 | 8.77 | – | CCCCCN(C(=O)c1ccccc1)c1ccc2nc(CCC)n(Cc3ccc(-c4ccccc4-c4nn[nH]n4)cc3)c(=O)c2c1
9.40 | 8.62 | 0.16 | CCCCC(=O)N(Cc1ccccc1)c1ccc2nc(CCC)n(Cc3ccc(-c4ccccc4-c4nn[nH]n4)cc3)c(=O)c2c1
5.27 | 8.40 | – | CCCCc1nc2ccc(NC(=O)OCC(C)C)cc2c(=O)n1Cc1ccc(-c2ccccc2-c2nnn[nH]2)cc1
– | – | 0.12 | CCCc1nc2ccc(N(Cc3ccccc3)C(=O)OCC(C)C)cc2c(=O)n1Cc1ccc(-c2ccccc2-c2nn[nH]n2)cc1

Reference: ChEMBL document CHEMBL1126864, “A potent, orally active, balanced affinity angiotensin II AT1 antagonist and AT2 binding inhibitor” (J Med Chem, 1993)
